Laboratory results published in patent publication US20260232578A1, “COMPOSITIONS AND METHODS FOR TRANSMUCOSAL ABSORPTION” (Tonix Pharma Limited, priority 2012, published 2026).
Read-outs that look alike come from different tables or passages of the source.

What was measured:
Sigma 2 = Sigma 2 (Homo sapiens, UniProt Q5BJF2); assay: Equilibrium binding (Table 69)
[1] = target: T1, adrenergic α1B receptor (Alpha1B) (Homo sapiens, UniProt P35368); assay: Equilibrium receptor binding, recombinant human receptor
T1 construct: expressed in transfected cells

5-HT1A receptor = target: T2, 5-HT1A receptor (Homo sapiens, UniProt P08908); assay: as above
T2 construct: expressed in transfected cells
T2 sequence (P08908 1-422): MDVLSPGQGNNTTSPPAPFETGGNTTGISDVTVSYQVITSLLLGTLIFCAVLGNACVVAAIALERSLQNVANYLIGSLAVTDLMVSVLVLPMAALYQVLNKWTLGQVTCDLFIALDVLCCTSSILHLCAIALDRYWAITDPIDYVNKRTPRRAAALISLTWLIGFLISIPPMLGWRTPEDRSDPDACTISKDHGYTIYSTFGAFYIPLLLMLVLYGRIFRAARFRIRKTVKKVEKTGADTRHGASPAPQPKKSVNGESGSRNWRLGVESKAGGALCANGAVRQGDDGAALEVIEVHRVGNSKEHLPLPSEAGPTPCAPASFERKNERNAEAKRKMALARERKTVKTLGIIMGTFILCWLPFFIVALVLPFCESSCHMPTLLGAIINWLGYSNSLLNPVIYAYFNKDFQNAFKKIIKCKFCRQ

muscarinic M1 receptor = target: T3, muscarinic M1 receptor (Homo sapiens, UniProt P11229)
T3 sequence (P11229 1-460): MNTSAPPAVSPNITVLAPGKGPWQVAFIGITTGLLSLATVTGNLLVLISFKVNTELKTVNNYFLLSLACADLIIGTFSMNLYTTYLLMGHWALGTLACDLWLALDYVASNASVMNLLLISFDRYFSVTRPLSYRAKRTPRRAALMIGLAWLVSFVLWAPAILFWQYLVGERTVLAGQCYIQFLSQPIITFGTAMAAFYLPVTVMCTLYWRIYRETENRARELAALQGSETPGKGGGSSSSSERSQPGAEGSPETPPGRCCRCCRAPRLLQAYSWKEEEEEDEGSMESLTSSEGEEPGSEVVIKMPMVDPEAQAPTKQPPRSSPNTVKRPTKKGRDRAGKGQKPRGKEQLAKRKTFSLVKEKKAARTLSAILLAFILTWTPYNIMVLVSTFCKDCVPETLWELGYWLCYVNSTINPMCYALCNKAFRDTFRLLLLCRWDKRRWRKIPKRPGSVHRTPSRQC

5-HT2B = target: T4, 5-HT2B (Homo sapiens, UniProt P41595); assay: Equilibrium receptor binding, recombinant human receptor
T4 construct: expressed in transfected cells

in vivo = conditions: beagle, dog
Method: Each dog was sampled at pre-dose before and after Propofol (when possible) and at 5, 10 and 20 minutes post-dose.

clinical [2] = conditions: human, in vivo, 2.4 mg
Method: Treatment A: A single dose of one TNX-102 2.4 mg SL tablet (with phosphate). Subjects were asked to keep the tablet under the tongue until dissolved and not to crush or chew it. Subjects were asked not to drink any water until at least 1 hour after dosing.
Treatment B: A single dose of one TNX-102-A 2.4 mg SL tablet (without phosphate). Subjects were asked to keep the tablet under the tongue until dissolved and not to crush or chew it. Subjects were asked not to drink any water until at least 1 hour after dosing.
Treatment C: A single dose of two TNX-102 2.4 mg SL tablets (with phosphate). Subjects will be asked to keep the tablets under the tongue until dissolved and not to crush or chew them. Subjects were asked not to drink any water until at least 1 hour after dosing.
Subjects were asked to swallow the administered tablet whole and not to crush or chew it.
Partial AUC at different times were calculated to examine the effect of sublingual administration on absorption.

[3] = humans, cited from earlier work
[4] = Pharmacokinetics of sublingual cyclobenzaprine HCl tablets with and without K2HPO4 (Example 10); type: in vivo, beagle dog; conditions: 2.4 mg sublingual tablet with basifying agent
Method: Pharmacokinetic parameters were then calculated and compared.
For sublingual dosing, dogs were given propofol and were put in a lying position (ventral decubitis). The mouth was gently opened and the tablet was placed under the tongue. The tongue was then immediately replaced in its initial position and the mouth was closed. The dog was left in the same position until waking. […] After the washout period of two weeks, dogs were sedated in the same way and given a single sublingual dose of the formulation without basifying agent. Blood samples after both types of treatment were taken pre-dose and at 5, 10, 20, 30, and 45 minutes, and at 1, 2, 3, 4, 6, 8, and 10 hours after dose administration. Blood was taken from the jugular vein.
The method involved liquid-liquid extraction with hexane. The extracts were injected using an HPLC system and an API4000® (Applied Biosystems) for MS/MS detection, with an “Onyx monolithic Phenomenex C18 100×3.0 mm” column.
Sublingual administration was performed by placing the control tablet or tablet with K2HPO4 under the tongue when female beagles were slightly anesthetized with propofol.

[5] = humans, cited from earlier work; remark: listed apart in the source
clinical [6] = conditions: human, in vivo, po, 5 mg
Method: The conditions used were as follows:
Quantitation was based on peak area ratio of the analytes versus their stable labeled internal standards. A weighted (1/C2), linear regression was performed to determine the concentration of the analytes. All regressions and figures presented in this validation report were generated by MDS Sciex Analyst version 1.4.2 and Thermo Electron Corporation Watson LIMS software, version 7.0.0.01b. […] Select receptors were analyzed in ligand-induced intracellular calcium mobilization.

[7] = 2.5 mg immediate release tablets (Winchell)
[8] = 5.0 mg immediate release tablets (Winchell)
[9] = 10 mg immediate release tablets (Winchell)

T4 sequence (P41595 whole entry): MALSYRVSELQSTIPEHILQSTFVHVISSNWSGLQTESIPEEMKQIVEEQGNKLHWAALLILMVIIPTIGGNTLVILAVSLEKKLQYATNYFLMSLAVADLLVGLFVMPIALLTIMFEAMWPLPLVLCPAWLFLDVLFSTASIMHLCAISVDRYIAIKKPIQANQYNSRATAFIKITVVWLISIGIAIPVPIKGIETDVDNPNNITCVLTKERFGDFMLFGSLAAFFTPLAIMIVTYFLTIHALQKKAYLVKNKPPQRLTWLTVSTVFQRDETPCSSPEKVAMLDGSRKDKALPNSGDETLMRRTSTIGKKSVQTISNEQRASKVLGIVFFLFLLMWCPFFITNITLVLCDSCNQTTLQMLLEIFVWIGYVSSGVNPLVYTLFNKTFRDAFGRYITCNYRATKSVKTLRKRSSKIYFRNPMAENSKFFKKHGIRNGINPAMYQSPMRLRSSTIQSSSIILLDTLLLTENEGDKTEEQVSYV
Chain of Sigma 2 (Q5BJF2 whole entry): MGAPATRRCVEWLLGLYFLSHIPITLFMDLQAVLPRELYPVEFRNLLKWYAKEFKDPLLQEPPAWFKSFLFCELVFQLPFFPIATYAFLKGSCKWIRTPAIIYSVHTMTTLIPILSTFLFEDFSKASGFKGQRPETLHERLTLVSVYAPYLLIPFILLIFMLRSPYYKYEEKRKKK
T1 sequence (P35368 whole entry): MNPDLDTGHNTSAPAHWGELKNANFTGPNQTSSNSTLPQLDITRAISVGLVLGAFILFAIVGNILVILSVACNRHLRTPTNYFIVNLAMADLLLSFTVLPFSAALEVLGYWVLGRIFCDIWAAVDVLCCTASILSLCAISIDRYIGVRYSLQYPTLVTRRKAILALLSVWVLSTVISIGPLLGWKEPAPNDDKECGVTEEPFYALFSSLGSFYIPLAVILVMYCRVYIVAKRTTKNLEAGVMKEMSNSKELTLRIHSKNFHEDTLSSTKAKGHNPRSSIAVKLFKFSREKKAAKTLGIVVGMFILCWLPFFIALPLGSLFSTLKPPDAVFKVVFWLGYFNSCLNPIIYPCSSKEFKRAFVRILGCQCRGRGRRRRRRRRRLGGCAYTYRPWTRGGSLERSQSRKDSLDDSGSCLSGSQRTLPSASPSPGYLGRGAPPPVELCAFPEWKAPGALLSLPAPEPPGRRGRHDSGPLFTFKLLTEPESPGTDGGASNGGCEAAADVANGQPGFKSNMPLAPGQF

`CNCCC=C1c2ccccc2C=Cc2ccccc21` [norcyclobenzaprine, 3-(5H-dibenzo[a,d]cyclohepten-5-ylidene)-N-methyl-1-propanamine] gave a Ki (Sigma 2) of 480 nM, a Ki [1] of 11 nM and a Ki (5-HT1A receptor) of 76 nM. The “Hill plot ratio (Hill slope)” value (5-HT1A receptor; equilibrium binding) was 4.07, the “Hill plot ratio (Hill slope)” value (muscarinic M1 receptor) was 0.70 and the Ki (5-HT2B) was 12 nM. The “Hill plot ratio (Hill slope)” value (5-HT2B; equilibrium binding) was 1.10.

With `CN(C)CCC=C1c2ccccc2C=Cc2ccccc21` [cyclobenzaprine, 3-(5H-dibenzo[a,d]cyclohepten-5-ylidene)-N,N-dimethyl-1-propanamine] the “bioavailability, sublingual vs IV calculated in the same condition” value (in vivo) was “about 200%”, the AUC(0-inf) (clinical [2]) was about 61 ng·h/mL and the Cmax (clinical [2]) was about 2.74 ng/mL. The AUC(0-t) (clinical [2]; AUC0-20min) was about 0.04 ng·h/mL, the AUC(0-t) (clinical [2]; AUC0-30min) was about 0.13 ng·h/mL and the AUC(0-t) (clinical [2]; AUC0-45min) was about 0.33 ng·h/mL. The AUC(0-t) (clinical [2]; AUC0-1 h) was about 0.61 ng·h/mL, the AUC(0-t) (clinical [2]; AUC0-2 h) was about 2.1 ng·h/mL and the AUC(0-t) (clinical [2]; AUC0-3 h) was about 3.93 ng·h/mL. It also gave an AUC(0-t) (clinical [2]; AUC0-4 h) of about 6.27 ng·h/mL, an AUC(0-t) (clinical [2]; AUC0-5.5 h) of about 10.1 ng·h/mL and an AUC(0-t) (clinical [2]; AUC0-6 h) of about 11.3 ng·h/mL. The AUC(0-t) (clinical [2]; AUC0-8 h) was about 15.1 ng·h/mL, the AUC(0-t) (clinical [2]; AUC0-12 h) was about 50.3 ng·h/mL and the AUC(0-t) (clinical [2]; AUC0-[…] (second mention, after AUC0-[…])) was about 8.81 ng·h/mL. For the same compound, the IC50 (Sigma 2; read-out: IC50 (nM) (Antagonist)) was 2000 nM, the Ki [1] was 9.1 nM and the AUC0-8 h [3, 7] was 11.1 ng·h/mL. For the same compound, the “AUC0-∞h” value [3, 7] was 44.2 ng·h/mL, the AUC0-8 h [3, 8] was 23.0 ng·h/mL and the “AUC0-∞h” value [3, 8] was 89.5 ng·h/mL. The AUC0-8 h [3, 9] was 45.9 ng·h/mL, the “AUC0-∞h” value [3, 9] was 178.2 ng·h/mL and the dbmnAUC0-0.75 h ([4]; Beagles 12.5 kg) was 0.000708 kg·h/mL. The dnAUC0-0.75 h ([4]; Beagles) was 5.65e-05 h/mL, the Ki (5-HT1A receptor) was 1100 nM and the Ki (5-HT2B) was 15 nM. For the same compound, the “upper limit for the half-life of the first phase (distribution out of plasma)” value ([5]; IV bolus) was 3 to 5 min, the “amount in plasma as % of the theoretical initial concentration (Cinit)” value ([5]; within 3 to 30 minutes after IV bolus) was “less than 5%” and the AUC(0-t) (clinical [6]) was 92.2 ± 29.9 ng·h/mL.
